# Results: patent US11464770B2, “Anticancer pharmaceutical composition” (NATIONAL CANCER CENTER, priority 2016, dated 2022)
# Like-named read-outs stand apart in the source and are kept apart here.
# Experiments:
# renal cancer cell lines = assay: Cell based assay, cell viability (CellTiter-Glo), renal cancer cell lines; settings: Homo sapiens; ACHN cells
# In short: (§1)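 Cell lines seeded, cultured 24 hours, then exposed to compound at final 0 to 2 μM. After a further 72 hours, viability measured by ATP-detection luminescence (CellTiter-Glo).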
# [1] = system: lung cancer cell lines (e.g. NCI-H23, NCI-H1229); assay: Cell based assay, cell viability (CellTiter-Glo), lung cancer cell lines; settings: Homo sapiens
# In short: as §1
# [2] = A549 cells, 72 hours treatment, CellTiter-Glo, read-out: IC50, lung cancer cell line A549
# [3] = DMS 114 cells, 72 hours treatment, CellTiter-Glo, read-out: IC50, lung cancer cell line DMS 114
# [4] = MRC-5 cells, 72 hours treatment, CellTiter-Glo, read-out: IC50
# [5] = NCI-H23 cells, 72 hours treatment, CellTiter-Glo, read-out: IC50, lung cancer cell line NCI-H23
# [6] = NCI-H460 cells, 72 hours treatment, CellTiter-Glo, read-out: IC50, lung cancer cell line NCI-H460
# [7] = NCI-H522 cells, 72 hours treatment, CellTiter-Glo, read-out: IC50, lung cancer cell line NCI-H522
# [8] = NCI-H1299 cells, 72 hours treatment, CellTiter-Glo, read-out: IC50, lung cancer cell line NCI-H1299
# [9] = NCI-H1437 cells, 72 hours treatment, CellTiter-Glo, read-out: IC50, lung cancer cell line NCI-H1437
# [10] = Lung cancer cell line A549, 72 hours, cell viability (CellTiter-Glo), read-out: IC50, A549
# [11] = Lung cancer cell line DMS 114, 72 hours, cell viability (CellTiter-Glo), read-out: IC50, DMS 114
# [12] = Lung cancer cell line NCI-H23, 72 hours, cell viability (CellTiter-Glo), read-out: IC50, NCI-H23
# [13] = Lung cancer cell line NCI-H460, 72 hours, cell viability (CellTiter-Glo), read-out: IC50, NCI-H460
# [14] = Lung cancer cell line NCI-H522, 72 hours, cell viability (CellTiter-Glo), read-out: IC50, NCI-H522
# [15] = Lung cancer cell line NCI-H1299, 72 hours, cell viability (CellTiter-Glo), read-out: IC50, NCI-H1299
# [16] = Lung cancer cell line NCI-H1437, 72 hours, cell viability (CellTiter-Glo), read-out: IC50, NCI-H1437
# [17] = MRC-5 (listed under Lung cancer cell line), 72 hours, cell viability (CellTiter-Glo), read-out: IC50, MRC-5
SMILES,IC50 (renal cancer cell lines),"IC50 [1, 2]","IC50 [1, 3]","IC50 [1, 5]","IC50 [1, 6]","IC50 [1, 7]","IC50 [1, 8]","IC50 [1, 9]","IC50 [1, 10]","IC50 [1, 11]","IC50 [1, 12]","IC50 [1, 13]","IC50 [1, 14]","IC50 [1, 15]","IC50 [1, 16]","IC50 [1, 4]","IC50 [1, 17]"
"COc1ccccc1Sc1[nH]c2c(Br)ccc(Cl)c2c(=O)c1C(C)=O [Compound 14, 3-acetyl-8-bromo-5-chloro-2-((2-methoxyphenyl)thio)quinolin-4(1H)-one]",> 2000 nM,> 2000 nM,> 2000 nM,> 2000 nM,> 2000 nM,> 2000 nM,> 2000 nM,> 10000 nM,,,,,,,,> 2000 nM,
"CC(=O)c1c([S+]([O-])Cc2ccc(-n3cccn3)nc2)[nH]c2c(Br)ccc(Cl)c2c1=O (stereo not drawn) [Compound 99, 2-(((6-(1H-pyrazol-1-yl)pyridin-3-yl)methyl)sulfinyl)-3-acetyl-8-bromo-5-chloroquinolin-4(1H)-one]",1210 nM,,,,,,,,1290 nM,> 2000 nM,920 nM,1180 nM,1130 nM,1060 nM,> 10000 nM,,1130 nM
"CC(=O)c1c(SCc2cccc(F)c2)[nH]c2c(Br)ccc(Cl)c2c1=O [Compound 49, 3-acetyl-8-bromo-5-chloro-2-((3-fluorobenzyl)thio)quinolin-4(1H)-one]",> 2000 nM,> 2000 nM,> 2000 nM,> 2000 nM,> 2000 nM,> 2000 nM,> 2000 nM,> 10000 nM,,,,,,,,> 2000 nM,
"CSc1c(C(C)=O)c(=O)c2c(Cl)ccc(Br)c2n1S(C)(=O)=O [Compound 35, 3-acetyl-8-bromo-5-chloro-1-(methylsulfonyl)-2-(methylthio)quinolin-4(1H)-one]",> 2000 nM,> 2000 nM,> 2000 nM,> 2000 nM,> 2000 nM,> 2000 nM,> 2000 nM,> 10000 nM,,,,,,,,> 2000 nM,
"COc1cccc2[nH]c([S+]([O-])Cc3ccc(S(F)(F)(F)(F)F)cc3)c(C(C)=O)c(=O)c12 (stereo not drawn) [Compound 93, 3-acetyl-5-methoxy-2-((4-(pentafluoro--sulfanyl)benzyl)sulfinyl)quinolin-4(1H)-one]",> 2000 nM,> 2000 nM,> 2000 nM,> 2000 nM,> 2000 nM,> 2000 nM,> 2000 nM,> 10000 nM,,,,,,,,> 2000 nM,
"CC(=O)c1c(S)[nH]c2c(Br)ccc(Cl)c2c1=O [Compound 62, 3-acetyl-8-bromo-5-chloro-2-mercaptoquinolin-4(1H)-one]",> 2000 nM,> 2000 nM,> 2000 nM,> 2000 nM,> 2000 nM,> 2000 nM,> 2000 nM,> 10000 nM,,,,,,,,> 2000 nM,
"CC(=O)c1c(SCc2cc(Cl)ccc2Cl)[nH]c2c(Br)ccc(Cl)c2c1=O [Compound 43, 3-acetyl-8-bromo-5-chloro-2-((2,5-dichlorobenzyl)thio)quinolin-4(1H)-one]",> 2000 nM,> 2000 nM,> 2000 nM,> 2000 nM,> 2000 nM,> 2000 nM,> 2000 nM,> 10000 nM,,,,,,,,> 2000 nM,
"CC(=O)c1c([S+]([O-])Cc2nonc2C)[nH]c2c(Br)ccc(Cl)c2c1=O (stereo not drawn) [Compound 106, 3-acetyl-8-bromo-5-chloro-2-(((4-methyl-1,2,5-oxadiazol-3-yl)methyl)sulfinyl)quinolin-4(1H)-one]",> 2000 nM,,,,,,,,> 2000 nM,> 2000 nM,> 2000 nM,> 2000 nM,> 2000 nM,> 2000 nM,> 10000 nM,,> 2000 nM
"CC(=O)c1c([S+]([O-])c2ccc(Br)cc2)[nH]c2c(Br)ccc(Cl)c2c1=O (stereo not drawn) [Compound 17, 3-acetyl-8-bromo-2-((4-bromophenyl)sulfinyl)-5-chloroquinolin-4(1H)-one]",> 2000 nM,> 2000 nM,> 2000 nM,> 2000 nM,> 2000 nM,> 2000 nM,> 2000 nM,> 10000 nM,,,,,,,,> 2000 nM,
"CSc1[nH]c2c(Br)ccc(Cl)c2c(=O)c1C(C)=O [Compound 2, 3-acetyl-8-bromo-5-chloro-2-(methylthio)quinolin-4(1H)-one]",> 2000 nM,> 2000 nM,> 2000 nM,> 2000 nM,> 2000 nM,> 2000 nM,> 2000 nM,> 10000 nM,,,,,,,,> 2000 nM,
"CSc1c(C(C)=O)c(=O)c2c(Cl)ccc(Br)c2n1C [Compound 5, 3-acetyl-8-bromo-5-chloro-1-methyl-2-(methylthio)quinolin-4(1H)-one]",> 2000 nM,> 2000 nM,> 2000 nM,> 2000 nM,> 2000 nM,> 2000 nM,> 2000 nM,> 10000 nM,,,,,,,,> 2000 nM,

# Continued, in another order:
IC50 (renal cancer cell lines),"IC50 [1, 2]","IC50 [1, 3]","IC50 [1, 5]","IC50 [1, 6]","IC50 [1, 7]","IC50 [1, 8]","IC50 [1, 9]","IC50 [1, 10]","IC50 [1, 11]","IC50 [1, 12]","IC50 [1, 13]","IC50 [1, 14]","IC50 [1, 15]","IC50 [1, 16]",SMILES,"IC50 [1, 4]","IC50 [1, 17]"
> 2000 nM,> 2000 nM,> 2000 nM,> 2000 nM,> 2000 nM,> 2000 nM,> 2000 nM,> 10000 nM,,,,,,,,"CC(=O)c1c([S+]([O-])CN2C(=O)c3ccccc3C2=O)[nH]c2c(Cl)ccc(Cl)c2c1=O (stereo not drawn) [Compound 90, 2-(((3-acetyl-5,8-dichloro-4-oxo-1,4-dihydroquinolin-2-yl)sulfinyl)methyl)isoindoline-1,3-dione]",> 2000 nM,
> 2000 nM,> 2000 nM,> 2000 nM,1550 nM,> 2000 nM,> 2000 nM,> 2000 nM,> 10000 nM,,,,,,,,"CC(=O)c1c([S+]([O-])Cc2ccc(Cl)cc2)[nH]c2c(Br)ccc(Cl)c2c1=O (stereo not drawn) [Compound 11, 3-acetyl-8-bromo-5-chloro-2-((4-chlorobenzyl)sulfinyl)quinolin-4(1H)-one]",> 2000 nM,
> 2000 nM,> 2000 nM,> 2000 nM,> 2000 nM,> 2000 nM,> 2000 nM,> 2000 nM,> 10000 nM,,,,,,,,"CC(=O)c1c([S+]([O-])Cc2ccc(SC(F)(F)F)cc2)[nH]c2c(Cl)ccc(Cl)c2c1=O (stereo not drawn) [Compound 79, 3-acetyl-5,8-dichloro-2-((4-((trifluoromethyl)thio)benzyl)sulfinyl)quinolin-4(1H)-one]",> 2000 nM,
1200 nM,,,,,,,,1680 nM,> 2000 nM,1270 nM,1510 nM,1410 nM,1170 nM,> 10000 nM,"CC(=O)c1c([S+]([O-])Cc2ccc(Cl)nc2)[nH]c2c(Br)ccc(Cl)c2c1=O (stereo not drawn) [Compound 104, 3-acetyl-8-bromo-5-chloro-2-(((6-chloropyridin-3-yl)methyl)sulfinyl)quinolin-4(1H)-one]",,1620 nM
> 2000 nM,> 2000 nM,> 2000 nM,800 nM,> 2000 nM,1940 nM,1150 nM,> 10000 nM,,,,,,,,"CC(=O)c1c([S+]([O-])Cc2ccccc2C#N)[nH]c2c(Br)ccc(Cl)c2c1=O (stereo not drawn) [Compound 58, 2-(((3-acetyl-8-bromo-5-chloro-4-oxo-1,4-dihydroquinolin-2-yl)sulfinyl)methyl)benzonitrile]",760 nM,
> 2000 nM,1380 nM,> 2000 nM,770 nM,1410 nM,> 2000 nM,1240 nM,> 10000 nM,,,,,,,,"CC(=O)c1c([S+]([O-])Cc2ccc(S(F)(F)(F)(F)F)cc2)[nH]c2c(Br)ccc(Cl)c2c1=O (stereo not drawn) [Compound 68, 3-acetyl-8-bromo-5-chloro-2-((4-(pentafluoro-16-sulfanyl)benzyl)sulfinyl)quinolin-4(1H)-one]",950 nM,
